One assay concerns S. marcescens TH-0447. Put plainly: MIC, agar plate dilution method, S. marcescens TH-0447. Format: cell-based, Serratia marcescens. The following applies: for MIC: Serratia marcescens, TH0447, S. marcescens TH-0447, AMK-resistant, read-out: minimal inhibitory concentration (MIC). An outline of the steps:
(§1)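 Read-out is the lowest compound concentration inhibiting growth (MIC, μg/mL), obtained by the agar plate dilution procedure of the Japan Society of Chemotherapy.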

The subject of the next assay is E. coli JM109/pMW218. Briefly: MIC, agar plate dilution method, E. coli JM109/pMW218. The format is cell-based, Escherichia coli. Conditions: for MIC: Escherichia coli, JM109/PMW218, E. coli JM109/pMW218, Sensitive bacterium, read-out: minimal inhibitory concentration (MIC). An outline of the steps:
as §1

The next assay deals with S. aureus RN4220/pMS520. Briefly: MIC, agar plate dilution method, S. aureus RN4220/pMS520. Conditions: for MIC: Staphylococcus aureus, MRSA, read-out: minimal inhibitory concentration (MIC), S. aureus RN4220/pMS520, MRSA. The format is cell-based, Staphylococcus aureus. An outline of the steps: as §1
The next assay deals with P. aeruginosa PAO1. Briefly: MIC, agar plate dilution method, P. aeruginosa PAO1. The format is cell-based, Pseudomonas aeruginosa. The following applies: for MIC: Pseudomonas aeruginosa, PAO1, P. aeruginosa PAO1, Sensitive bacterium, read-out: minimal inhibitory concentration (MIC). An outline of the steps: as §1
In the next assay the test system is P. aeruginosa PAO1/GN315. Put plainly: MIC, agar plate dilution method, P. aeruginosa PAO1/GN315. Format: cell-based, Pseudomonas aeruginosa. Conditions: for MIC: Pseudomonas aeruginosa, read-out: minimal inhibitory concentration (MIC), P. aeruginosa PAO1/GN315, AMK-resistant. An outline of the steps:
as §1

For assay [1], the system named is K. pneumoniae ATCC BAA-1705. Put plainly: MIC, agar plate dilution method, K. pneumoniae ATCC BAA-1705. The format is cell-based, Klebsiella pneumoniae. The following applies: for MIC: Klebsiella pneumoniae, ATCCBAA1705, K. pneumoniae ATCC BAA-1705, KPC-producing strain, read-out: minimal inhibitory concentration (MIC). An outline of the steps: as §1
The next assay has as its system P. aeruginosa MSC17707. Put plainly: MIC, agar plate dilution method, P. aeruginosa MSC17707. The format is cell-based, Pseudomonas aeruginosa. Conditions: for MIC: Pseudomonas aeruginosa, MSC17707, P. aeruginosa MSC17707, AMK-resistant, read-out: minimal inhibitory concentration (MIC). An outline of the steps: as §1
For assay [2], the system named is K. pneumoniae ATCC BAA-2146. Briefly: MIC, agar plate dilution method, K. pneumoniae ATCC BAA-2146. Conditions: for MIC: Klebsiella pneumoniae, ATCCBAA2146, K. pneumoniae ATCC BAA-2146, NDM-producing strain, read-out: minimal inhibitory concentration (MIC). The format is cell-based, Klebsiella pneumoniae. An outline of the steps:
as §1

In a further assay the test system is E. faecium ATCC19434. Briefly: MIC, agar plate dilution method, E. faecium ATCC19434. Format: cell-based, Enterococcus faecium. Conditions: for MIC: Enterococcus faecium, ATCC19434, E. faecium ATCC19434, read-out: minimal inhibitory concentration (MIC). An outline of the steps:
as §1

In assay [3] the test system is A. baumannii ATCC BAA-1710. Put plainly: MIC, agar plate dilution method, A. baumannii ATCC BAA-1710. The format is cell-based, Acinetobacter baumannii. Conditions: for MIC: Acinetobacter baumannii, ATCCBAA1710, A. baumannii ATCC BAA-1710, MDRA, read-out: minimal inhibitory concentration (MIC). An outline of the steps: as §1
The test system of another assay is S. aureus MF490. Put plainly: MIC, agar plate dilution method, S. aureus MF490. Conditions: for MIC: Staphylococcus aureus, MRSA, read-out: minimal inhibitory concentration (MIC). The format is cell-based, Staphylococcus aureus. An outline of the steps: as §1
Another assay relates to S. marcescens GN6944. Put plainly: MIC, agar plate dilution method, S. marcescens GN6944. Conditions: S. marcescens GN6944, GM-resistant; for MIC: Serratia marcescens, read-out: minimal inhibitory concentration (MIC). Format: cell-based, Serratia marcescens. An outline of the steps:
as §1

In a further assay the test system is P. aeruginosa MSC01035. Put plainly: MIC, agar plate dilution method, P. aeruginosa MSC01035. Format: cell-based, Pseudomonas aeruginosa. Conditions: P. aeruginosa MSC01035, ABK-resistant; for MIC: Pseudomonas aeruginosa, read-out: minimal inhibitory concentration (MIC). An outline of the steps: as §1
For another assay, the system named is S. aureus RN4220. Put plainly: MIC, agar plate dilution method, S. aureus RN4220. The format is cell-based, Staphylococcus aureus. The following applies: for MIC: Staphylococcus aureus, RN4220, S. aureus RN4220, Sensitive bacterium, read-out: minimal inhibitory concentration (MIC). An outline of the steps: as §1

Results on four molecules are retold here after patent US11135234B2, “Effective aminoglycoside antibiotic for multidrug-resistant bacteria” (MICROBIAL CHEMISTRY RESEARCH FOUNDATION, priority 2015, dated 2021).

Values after ≈ are worked out from the molar mass of the structure shown.

Turning to `CNC1C(CO)OC(OC2OC3CC(N)C(OC4C(N)CC(N)CC4O)OC3C(O)C2NC)C(O)C1O` (stereo not drawn) [Compound S1-l, 6-deoxy-5-epi-4″-N-methylapramycin], the “minimal inhibitory concentration (MIC)” value was 4 µg/mL (≈ 7.44 µM) in the assay with S. marcescens TH-0447 (S. marcescens TH-0447, AMK-resistant); 0.5 µg/mL (≈ 0.93 µM) in the assay on E. coli JM109/pMW218 (E. coli JM109/pMW218, Sensitive bacterium); 1 µg/mL (≈ 1.86 µM) in the assay with S. aureus RN4220/pMS520 (S. aureus RN4220/pMS520, MRSA); 4 µg/mL (≈ 7.44 µM) in the assay on P. aeruginosa PAO1 (P. aeruginosa PAO1, Sensitive bacterium); 4 µg/mL (≈ 7.44 µM) in the assay on P. aeruginosa PAO1/GN315 (P. aeruginosa PAO1/GN315, AMK-resistant); 1 µg/mL (≈ 1.86 µM) in [1] (K. pneumoniae ATCC BAA-1705, KPC-producing strain). For the same molecule, the “minimal inhibitory concentration (MIC)” value in the assay with P. aeruginosa MSC17707 (P. aeruginosa MSC17707, AMK-resistant) stood at 4 µg/mL (≈ 7.44 µM); in assay [2] (K. pneumoniae ATCC BAA-2146, NDM-producing strain), 0.5 µg/mL (≈ 0.93 µM); in the assay with E. faecium ATCC19434 (E. faecium ATCC19434) it was 16 µg/mL (≈ 29.8 µM); in assay [3] (A. baumannii ATCC BAA-1710, MDRA), 4 µg/mL (≈ 7.44 µM); with S. aureus MF490 (S. aureus MF490, MRSA), 8 µg/mL (≈ 14.9 µM); in the assay on S. marcescens GN6944, 2 µg/mL (≈ 3.72 µM). The “minimal inhibitory concentration (MIC)” value was 4 µg/mL (≈ 7.44 µM) in the assay on P. aeruginosa MSC01035 and 2 µg/mL (≈ 3.72 µM) with S. aureus RN4220 (S. aureus RN4220, Sensitive bacterium).

Regarding `CNC1C(O[C@H]2OC(CO)[C@@H](N(CCN)CCN)[C@H](O)C2O)O[C@H]2CC(N)[C@@H](O[C@@H]3C(N)C[C@@H](N)C(O)[C@H]3O)OC2C1O` (some centres unmarked) [Compound A4-e, 4″-N,N-bis(2-aminoethyl)apramycin], the MIC in the assay with S. marcescens TH-0447 is 8 µg/mL (≈ 12.8 µM); in the assay on E. coli JM109/pMW218, 1 µg/mL (≈ 1.6 µM); in the assay with S. aureus RN4220/pMS520, 2 µg/mL (≈ 3.2 µM); in the assay on P. aeruginosa PAO1, 4 µg/mL (≈ 6.39 µM); with P. aeruginosa PAO1/GN315, 4 µg/mL (≈ 6.39 µM); in assay [1], 2 µg/mL (≈ 3.2 µM). In addition, the MIC in the assay on P. aeruginosa MSC17707 was 8 µg/mL (≈ 12.8 µM); in assay [2], 2 µg/mL (≈ 3.2 µM); in the assay with E. faecium ATCC19434 it was 16 µg/mL (≈ 25.6 µM); in assay [3], 4 µg/mL (≈ 6.39 µM); in the assay with S. aureus MF490, 4 µg/mL (≈ 6.39 µM); with S. marcescens GN6944, 8 µg/mL (≈ 12.8 µM). Also, the values for the MIC in the assay with P. aeruginosa MSC01035 and in the assay on S. aureus RN4220 were 8 µg/mL (≈ 12.8 µM) and 2 µg/mL (≈ 3.2 µM), respectively.

For `CNC1C(O[C@H]2OC(CO)[C@@H](NC(=O)CCN)[C@H](O)C2O)O[C@H]2C[C@H](N)[C@@H](O[C@@H]3C(N)C[C@@H](N)C[C@H]3O)OC2C1O` (stereo partly drawn) [Compound V1-q, 4″-N-(β-alanyl)-6-deoxy-5-epiapramycin], the MIC in the assay on S. marcescens TH-0447 worked out at 8 µg/mL (≈ 13.5 µM); with E. coli JM109/pMW218, 1 µg/mL (≈ 1.68 µM); in the assay with S. aureus RN4220/pMS520, 1 µg/mL (≈ 1.68 µM); in the assay on P. aeruginosa PAO1, 2 µg/mL (≈ 3.36 µM); in the assay with P. aeruginosa PAO1/GN315 it was 4 µg/mL (≈ 6.73 µM); in assay [1], 1 µg/mL (≈ 1.68 µM). Further, the MIC in the assay on P. aeruginosa MSC17707 turned out to be 2 µg/mL (≈ 3.36 µM); in assay [2] it was 1 µg/mL (≈ 1.68 µM); with E. faecium ATCC19434, 8 µg/mL (≈ 13.5 µM); in assay [3], 4 µg/mL (≈ 6.73 µM); in the assay with S. aureus MF490, 4 µg/mL (≈ 6.73 µM); with S. marcescens GN6944, 4 µg/mL (≈ 6.73 µM). The values for the MIC in the assay with P. aeruginosa MSC01035 and in the assay on S. aureus RN4220 were 4 µg/mL (≈ 6.73 µM) and 1 µg/mL (≈ 1.68 µM), respectively.

Consider `CNC1C(O[C@H]2OC(CO)[C@@H](NCCN)[C@H](O)C2O)O[C@H]2CC(N)[C@@H](O[C@@H]3C(N)C[C@@H](N)C(O)[C@H]3O)OC2C1O` (some centres unmarked) [Compound S1-g, 4″-N-(2-aminoethyl)-5-epiapramycin], for which the MIC was 8 µg/mL (≈ 13.7 µM) in the assay on S. marcescens TH-0447; 1 µg/mL (≈ 1.72 µM) in the assay on E. coli JM109/pMW218; 2 µg/mL (≈ 3.43 µM) in the assay with S. aureus RN4220/pMS520; 4 µg/mL (≈ 6.87 µM) in the assay with P. aeruginosa PAO1; 4 µg/mL (≈ 6.87 µM) with P. aeruginosa PAO1/GN315; 2 µg/mL (≈ 3.43 µM) in assay [1]. Moreover, the MIC in the assay with P. aeruginosa MSC17707 is 4 µg/mL (≈ 6.87 µM); in assay [2], 2 µg/mL (≈ 3.43 µM); in the assay on E. faecium ATCC19434, 16 µg/mL (≈ 27.5 µM); in assay [3], 4 µg/mL (≈ 6.87 µM); in the assay on S. aureus MF490 it was 8 µg/mL (≈ 13.7 µM); with S. marcescens GN6944, 8 µg/mL (≈ 13.7 µM). Further, the MIC in the assay on P. aeruginosa MSC01035 turned out to be 8 µg/mL (≈ 13.7 µM); with S. aureus RN4220 it was 4 µg/mL (≈ 6.87 µM).
